Reference: PMC12023841, “Unlocking the Gates: A Novel Diagnostic Molecule for Quantifying Efflux Levels in Gram‐Positive Bacteria” (Advanced Healthcare Materials, 2025)
Entries after “also recorded” stand apart in the source; their conditions may differ. Like-named read-outs stand apart in the source and are kept apart here.

Key:
[1] = system: SA 1199 (Wild‐type, basal); experiment: MIC, broth microdilution (CLSI); format: cell-based; settings: Staphylococcus aureus
[2] = system: SA 1199‐B (norA overexpressing); experiment: microbe, parasite or virus in culture; format: cell-based, Staphylococcus aureus; settings: Staphylococcus aureus
[3] = Solution‐state stability test in MH‐II broth; format: physicochemical; settings: 512–1 µg mL^−1, 37 °C for a day, centrifuged
Protocol: Before accessing the minimal inhibitory concentration (MIC), each phenazinium derivative was subjected to a solution‐state stability test. For this experiment, each derivative was solubilized in DMSO to achieve a primary stock solution (20 mg mL^−1). This stock was further diluted in MilliQ to achieve a working stock solution (10 mg mL^−1). […] The tubes were placed in an incubator at 37 °C for a day and later centrifuged at 25 000 rpm for 25 min.

[4] = system: Staphylococcus aureus ATCC 25923 (Reference, basal); experiment: MIC, broth microdilution (CLSI); format: cell-based; settings: ATCC25923
SA‐K1758 (∆norA) = experiment: microbe, parasite or virus in culture; format: cell-based; settings: Staphylococcus aureus
S. aureus strains [5] = settings: cited from earlier work
S. epidermidis strains [6] = system: S. epidermidis strains; design: method as in earlier work; settings: cited from earlier work
S. epidermidis strains [7] = format: cell-based
S. aureus strains [8] = format: cell-based
[9] = Precipitation of reserpine in the presence of 5a4; format: physicochemical; settings: text printed in Figure 7C
NorA efflux pump = NorA efflux pump (Staphylococcus aureus, UniProt P0A0J7); format: cell-based, S. aureus; settings: 5a4 1 µg mL^−1
NorA efflux pump, sequence (P0A0J7 whole entry): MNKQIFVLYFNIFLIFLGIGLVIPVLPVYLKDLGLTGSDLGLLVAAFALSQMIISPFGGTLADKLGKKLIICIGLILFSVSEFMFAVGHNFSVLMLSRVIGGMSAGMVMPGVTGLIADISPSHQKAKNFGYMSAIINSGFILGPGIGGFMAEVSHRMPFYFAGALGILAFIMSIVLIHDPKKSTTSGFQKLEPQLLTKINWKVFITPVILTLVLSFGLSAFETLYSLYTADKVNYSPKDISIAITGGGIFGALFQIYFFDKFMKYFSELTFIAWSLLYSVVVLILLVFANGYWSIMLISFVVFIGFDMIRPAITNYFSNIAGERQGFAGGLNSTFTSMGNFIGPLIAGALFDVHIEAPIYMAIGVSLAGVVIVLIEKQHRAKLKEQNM

## CCCCCCCCNc1cc2nc3ccc(NCCCC)cc3[n+](CCC)c2cc1N [5a3]
[1]
  MIC: 64 µg/mL
[2]
  MIC: 64 µg/mL
[3]
  Solution state stability (concentration at which visible precipitation was observed): Visible precipitation was observed at 128 µg mL^−1 and beyond
[4]
  MIC: 64 µg/mL
SA‐K1758 (∆norA)
  MIC: 8 µg/mL

## CCCCCCCC[n+]1c2cc(NCCCC)ccc2nc2cc(NCCOC)c(N)cc21 [5b4]
[1]
  MIC: 1 µg/mL
[2]
  MIC: 1 µg/mL
[3]
  Solution state stability (concentration at which visible precipitation was observed): excellent solubility and stability; also recorded: Stable
[4]
  MIC: 1 µg/mL
SA‐K1758 (∆norA)
  MIC: 2 µg/mL

## CCCCNc1cc2nc3ccc(NCCC)cc3[n+](CCC)c2cc1N [5c1]
[1]
  MIC: 2 µg/mL
[2]
  MIC: 2 µg/mL
[3]
  Solution state stability (concentration at which visible precipitation was observed): Stable
[4]
  MIC: 2 µg/mL
SA‐K1758 (∆norA)
  MIC: 0.5 µg/mL

## CCCNc1ccc2nc3cc(NCCOC)c(N)cc3[n+](CCC)c2c1 [5c2]
[1]
  MIC: 8 µg/mL
[2]
  MIC: 8 µg/mL
[3]
  Solution state stability (concentration at which visible precipitation was observed): excellent solubility and stability; also recorded: Stable
[4]
  MIC: 4 µg/mL
SA‐K1758 (∆norA)
  MIC: 4 µg/mL

## CCCCNc1ccc2nc3cc(NCCC)c(N)cc3[n+](CCCC)c2c1 [5d1]
[1]
  MIC: 16 µg/mL
[2]
  MIC: 16 µg/mL
[3]
  Solution state stability (concentration at which visible precipitation was observed): Visible precipitation was observed at 128 µg mL^−1 and beyond
[4]
  MIC: 16 µg/mL
SA‐K1758 (∆norA)
  MIC: 8 µg/mL

## CCCCNc1ccc2nc3cc(NCCCC)c(N)cc3[n+](CCCC)c2c1 [5d2]
[1]
  MIC: 1 µg/mL
[2]
  MIC: 0.5 to 1 µg/mL
[3]
  Solution state stability (concentration at which visible precipitation was observed): Visible precipitation was observed at 512 µg mL^−1 and beyond.
[4]
  MIC: 1 µg/mL
SA‐K1758 (∆norA)
  MIC: 0.5 µg/mL

## CCCCCCCCNc1ccc2nc3cc(NCCC)c(N)cc3[n+](CCCCCCCC)c2c1 [5e1]
[1]
  MIC: 16 µg/mL
[2]
  MIC: 16 µg/mL
[3]
  Solution state stability (concentration at which visible precipitation was observed): Visible precipitation was observed at 128 µg mL^−1
[4]
  MIC: 16 µg/mL
SA‐K1758 (∆norA)
  MIC: 8 µg/mL

## CCCCCCCCNc1ccc2nc3cc(NC(C)(C)C)c(N)cc3[n+](CCCCCCCC)c2c1 [5e2]
[1]
  MIC: 8 µg/mL
[2]
  MIC: 8 µg/mL
[3]
  Solution state stability (concentration at which visible precipitation was observed): Stable
[4]
  MIC: 8 µg/mL
SA‐K1758 (∆norA)
  MIC: 8 µg/mL

## CCCCCCCCNc1ccc2nc3cc(NCCCCCCCC)c(N)cc3[n+](CCCCCCCC)c2c1 [5e3]
[1]
  MIC: 64 µg/mL
[2]
  MIC: 64 µg/mL
[3]
  Solution state stability (concentration at which visible precipitation was observed): Visible precipitation was observed at 128 µg mL^−1
[4]
  MIC: 32 µg/mL
SA‐K1758 (∆norA)
  MIC: 64 µg/mL

## O=C(O)c1cn(C2CC2)c2cc(N3CCNCC3)c(F)cc2c1=O [CIP, Ciprofloxacin]
S. aureus strains [5]; strain ATCC25923, ref [4]
  Susceptibility profile: I
S. aureus strains [5]; strain ATCC25923_EtBr, ref [4]
  Susceptibility profile: I
S. aureus strains [5]; strain SA-1199, ref [2]
  Susceptibility profile: S
S. aureus strains [5]; strain SA-1199B, ref [2]
  Susceptibility profile: R
S. aureus strains [5]; strain SA-K1712, ref [3]
  Susceptibility profile: S
S. aureus strains [5]; strain SA-K1748, ref [3]
  Susceptibility profile: R
S. aureus strains [5]; strain SA-K1758, ref [2]
  Susceptibility profile: S
S. aureus strains [5]; strain SA-K2068, ref [3]
  Susceptibility profile: S
S. epidermidis strains [6]
  Susceptibility profile: I

## COc1c(N2C[C@@H]3CCCN[C@@H]3C2)c(F)cc2c(=O)c(C(=O)O)cn(C3CC3)c12 [MXF, Moxifloxacin]
S. aureus strains [5]; strain ATCC25923, ref [4]
  Susceptibility profile: S
S. aureus strains [5]; strain SA-1199, ref [2]
  Susceptibility profile: S
S. aureus strains [5]; strain SA-1199B, ref [2]
  Susceptibility profile: S
S. aureus strains [5]; strain SA-K1712, ref [3]
  Susceptibility profile: S
S. aureus strains [5]; strain SA-K1748, ref [3]
  Susceptibility profile: R
S. aureus strains [5]; strain SA-K1758, ref [2]
  Susceptibility profile: S
S. aureus strains [5]; strain SA-K2068, ref [3]
  Susceptibility profile: R
S. epidermidis strains [7]
  Susceptibility profile: R
S. epidermidis strains [7]; strain BIOS-V24
  Susceptibility profile: S
S. epidermidis strains [7]; strain BIOS-V282
  Susceptibility profile: S
S. aureus strains [8]
  Susceptibility profile: R and S
S. aureus strains [8]; […]
  Susceptibility profile: S
S. aureus strains [8]; strain BIOS-H1
  Susceptibility profile: S
S. aureus strains [8]; strain BIOS-H2
  Susceptibility profile: S
S. aureus strains [8]; strain BIOS-H3
  Susceptibility profile: S
S. aureus strains [8]; strain BIOS-H5
  Susceptibility profile: S
S. aureus strains [8]; strain BIOS-H6
  Susceptibility profile: S
S. aureus strains [8]; strain BIOS-H12
  Susceptibility profile: S
S. aureus strains [8]; strain BIOS-H13
  Susceptibility profile: S
S. aureus strains [8]; strain BIOS-H17
  Susceptibility profile: S
S. aureus strains [8]; strain BIOS-H20
  Susceptibility profile: S
S. aureus strains [8]; strain BIOS-H21
  Susceptibility profile: S
S. aureus strains [8]; strain BIOS-H22
  Susceptibility profile: S
S. aureus strains [8]; strain BIOS-H25
  Susceptibility profile: S
S. aureus strains [8]; strain BIOS-H28
  Susceptibility profile: S
S. aureus strains [8]; strain BIOS-H29
  Susceptibility profile: S
S. aureus strains [8]; strain BIOS-H30
  Susceptibility profile: S
S. aureus strains [8]; strain BIOS-H32
  Susceptibility profile: S
S. aureus strains [8]; strain BIOS-V21
  Susceptibility profile: S
S. aureus strains [8]; strain BIOS-V31
  Susceptibility profile: S
S. aureus strains [8]; strain BIOS-V60
  Susceptibility profile: S
S. aureus strains [8]; strain BIOS-V61
  Susceptibility profile: S
S. aureus strains [8]; strain BIOS-V62
  Susceptibility profile: S
S. aureus strains [8]; strain BIOS-V74
  Susceptibility profile: S
S. aureus strains [8]; strain BIOS-V75
  Susceptibility profile: S
S. aureus strains [8]; strain BIOS-V85
  Susceptibility profile: S
S. aureus strains [8]; strain BIOS-V118
  Susceptibility profile: S
S. aureus strains [8]; strain BIOS-V128
  Susceptibility profile: S
S. aureus strains [8]; strain BIOS-V147
  Susceptibility profile: S
S. aureus strains [8]; strain BIOS-V151
  Susceptibility profile: S
S. aureus strains [8]; strain BIOS-V156
  Susceptibility profile: S
S. aureus strains [8]; strain BIOS-V157
  Susceptibility profile: S
S. aureus strains [8]; strain BIOS-V158
  Susceptibility profile: S
S. aureus strains [8]; strain BIOS-V168
  Susceptibility profile: S
S. aureus strains [8]; strain BIOS-V172
  Susceptibility profile: S
S. aureus strains [8]; strain BIOS-V178
  Susceptibility profile: S
S. aureus strains [8]; strain BIOS-V203
  Susceptibility profile: S
S. aureus strains [8]; strain BIOS-V245
  Susceptibility profile: S
S. aureus strains [8]; strain BIOS-V250
  Susceptibility profile: S
S. aureus strains [8]; strain BIOS-V257
  Susceptibility profile: S
S. aureus strains [8]; strain BIOS-V279
  Susceptibility profile: S
S. aureus strains [8]; strain BIOS-V295
  Susceptibility profile: S
S. epidermidis strains [6]; strain ATCC12228, ref [5]
  Susceptibility profile: S
S. epidermidis strains [6]; strain ATCC12228_EtBr, ref [5]
  Susceptibility profile: R

## COC(=O)[C@H]1[C@H]2C[C@@H]3c4[nH]c5cc(OC)ccc5c4CCN3C[C@H]2C[C@@H](OC(=O)c2cc(OC)c(OC)c(OC)c2)[C@@H]1OC [reserpine]
[9]
  Precipitation of reserpine (concentration): 20 to 30 µg/mL
NorA efflux pump; SA‐1199B
  change of 5a4 fluorescent intensity with reserpine: drastic increase
NorA efflux pump; SA‐1199 and SA‐1199B
  reserpine concentration giving significant increase (p < 0.01) in 5a4 fluorescence intensity versus untreated cells: ≥ 10 µg/mL
NorA efflux pump; SA‐K1758 (norA‐deficient)
  change of 5a4 fluorescent intensity with reserpine: no discernible change
